Test results: patent publication US20190192699A1, “NUCLEAR IMAGING AND RADIOTHERAPEUTICS AGENTS TARGETING CARBONIC ANHYDRASE IX AND USES THEREOF” (THE JOHNS HOPKINS UNIVERSITY, priority 2016, published 2019)
Values joined by “and” are separate entries in the source; they are usually repeats but may differ in a detail not shown here. Equal entries are not always repeated. “Also recorded” adds a separate entry of the source.

Columns and labels:
SK-RC-52 xenografts = assay: Biodistribution of [Al18F]XYIMSR-04; format: in vivo, mice; settings: 1 h post-injection
Description: (§1) Cell Lines and Mouse Models. Animal experiments were performed in accordance with protocols approved by the Johns Hopkins Animal Care and Use Committee (ACUC). Six-week-old female NOD/SCID mice were purchased from the Animal Resource Core of the Sidney Kimmel Comprehensive Cancer Center of Johns Hopkins and were subcutaneously injected in the lower left flank or upper right flank with 1×10^6 SK-RC-52 cells in RPMI 1640 GlutaMAX™ media (Life Technologies, Frederick, Md.) supplemented with 1% fetal bovine serum (FBS). Mice were monitored for tumor size and used for SPECT/CT imaging when the size of the tumor reached 100 mm^3.
Biodistribution of [Al^18F]XYIMSR-04. Mice bearing SK-RC-52 xenografts within the lower left flank were injected intravenously with 740 kBq (20 μCi) of [Al^18F]XYIMSR-04 in 200 μL of PBS. At specific 1 hour time point mentioned in the paper, mice (n=5) were sacrificed by cervical dislocation and the blood was immediately collected by cardiac puncture. Heart, lungs, pancreas, spleen, fat, brain, muscle, small intestines, liver, bone, stomach, kidney, urinary bladder, and tumor were collected. Each organ was weighed and the tissue radioactivity was measured with an automated gamma counter (1282 Compugamma CS, Pharmacia/LKBNuclear, Inc., Mt. Waverly, Vic. Australia). The percentage of injected dose per gram of tissue (% ID/g) was calculated by comparison with samples of a standard dilution of the initial dose. All measurements were corrected for radioactive decay. Data were expressed as mean±standard deviation (SD). Prism software (GraphPAD, San Diego, Calif.) was used to determine statistical significance. Statistical significance was calculated using a paired t test. P-values […] were considered significant.

[1] = tested on: CAIX-expressing SK-RC-52 tumors; assay: PET/CT imaging of [Al18F]XYIMSR-04; format: in vivo, mice; settings: 7.4 MBq (200 μCi) via tail vein
Description: as §1
PET/CT imaging of [Al^18F]XYIMSR-04. Mice harboring subcutaneous SK-RC-52 tumors with the lower left flank were injected with 7.4 MBq (200 μCi) of [Al^18F]XYIMSR-04 in 250 μL of PBS (pH=7.0) intravenously (tail vein). Anesthesia was then induced with 3% isofluorane and maintained at 2% isoflurane. Physiologic temperature was maintained with an external light source while the mouse was on the gantry. […] Whole body 2-bed PET scan was performed using ARGUS small-animal PET/CT scanner (Sedecal, Madrid, Spain) at 250-700 keV energy window. PET acquisition times were: 5 min/bed (1 h) post-injection of [Al^18F]XYIMSR-04. PET images were co-registered with the corresponding 360-slice CT images. […]

CC(CCC(=O)N[C@@H](CC(=O)N[C@@H](CC(=O)N[C@@H](CCCCn1cc(CCCC(=O)Nc2nnc(S(N)(=O)=O)s2)nn1)C(=O)NCCOCCOCCNC(=O)CN1CCN2CCN(CC1)CC(=O)[O][Al]([18F])[O]C(=O)C2)C(=O)O)C(=O)O)(c1ccc(O)cc1)c1ccc(O)cc1 [[Al^18F]XYIMSR-04]
Biodistribution: Bladder (SK-RC-52 xenografts): 20.12 ± 12.51 % ID/g
Biodistribution: Blood (SK-RC-52 xenografts): 0.65 ± 0.11 % ID/g
Biodistribution: Bone (SK-RC-52 xenografts): 1.91 ± 1.39 % ID/g
Biodistribution: Brain (SK-RC-52 xenografts): 0.66 ± 0.04 % ID/g
Biodistribution: Fat (SK-RC-52 xenografts): 1.54 ± 0.25 % ID/g
Biodistribution: Heart (SK-RC-52 xenografts): 5.03 ± 0.51 % ID/g
Biodistribution: Kidney (kid) (SK-RC-52 xenografts): 50.84 ± 2.65 % ID/g
Biodistribution: Liver (SK-RC-52 xenografts): 5.55 ± 0.91 % ID/g
Biodistribution: Lung (SK-RC-52 xenografts): 34.07 ± 5.85 % ID/g
Biodistribution: Muscle (mm) (SK-RC-52 xenografts): 1.74 ± 0.58 % ID/g
Biodistribution: Pancreas (SK-RC-52 xenografts): 3.47 ± 0.16 % ID/g
Biodistribution: Sm. intestine (SK-RC-52 xenografts): 9.59 ± 1.04 % ID/g
Biodistribution: Spleen (SK-RC-52 xenografts): 0.54 ± 0.18 % ID/g
Biodistribution: Stomach (SK-RC-52 xenografts): 21.62 ± 1.85 % ID/g
Biodistribution: Tumor (SK-RC-52 xenografts): 14.40 % ID/g and 14.40 ± 2.18 % ID/g
Tumor/Blood ratio (SK-RC-52 xenografts): 22.1 and 22.1 ± 1.5
Tumor/kid (kidney) ratio (SK-RC-52 xenografts): 0.28 and 0.28 ± 0.03
Tumor/mm (muscle) ratio (SK-RC-52 xenografts): 9.74 and 9.74 ± 2.9
PET/CT tumor imaging finding [1]: radiotracer uptake in tumor at 1 h post-injection; also recorded: tumor visualization by 1 h post-injection
